Patent US11021521B2, “Pore-modified gram-negative bacteria and uses thereof” (priority 2015, dated 2021)
Values after ≈ are worked out from the molar mass of the structure shown. Where two headings read alike, the source gives them in different places. Bridge positions count the residues as written; N and C are the ends. Square brackets hold non-standard residues; d marks the D form. Peptide text beside a SMILES is read from it. * marks the point of attachment. Ileψ(thiazoline)Cys = CC[C@H](C)[C@H](N)C1=N[C@H](C(=O)*)CS1; dOrn = NCCC[C@@H](N)C(=O)O

How the values were obtained:
Assay in all cases: microbe, parasite or virus in culture
Assay type in all cases: cell-based
[1] = test system: P. aeruginosa PAO1-LAC-EcPore (hyperporinated); conditions: for MIC: PAO1-LAC-EcPore, at least three independent measurements; for Fold decrease of MIC (potentiation) by hyperporination: Pae: PAO1-LAC-EcPore vs parent
[2] = test system: A. baumannii Ab-ARA (wild type, empty cassette); conditions: at least three independent measurements
[3] = test system: B. thailandensis Bt-RHA (wild type, empty cassette)
[4] = test system: A. baumannii AbΔ3-ARA (efflux-deficient); conditions: AbΔ3-ARA, at least three independent measurements
[5] = test system: B. thailandensis Bt-RHA-BtPore (hyperporinated)
[6] = test system: A. baumannii Ab-ARA-EcPore (hyperporinated); conditions: for MIC: Ab-ARA-EcPore, at least three independent measurements; for Fold decrease of MIC (potentiation) by hyperporination: Abau: Ab-ARA-EcPore vs parent
[7] = test system: P. aeruginosa PAO1-LAC (wild type, empty cassette); conditions: at least three independent measurements
[8] = test system: B. cepacia Bc-RHA-BtPore (hyperporinated); conditions: for MIC: Bc-RHA-BtPore; for Fold decrease of MIC (potentiation) by hyperporination: Bc: Bc-RHA-BtPore vs parent
[9] = test system: P. aeruginosa PaΔ3-LAC (efflux-deficient); conditions: at least three independent measurements
[10] = test system: B. cepacia Bc-RHA (wild type, empty cassette)
[11] = test system: B. thailandensis BtΔ2-RHA (efflux-deficient)
[12] = test system: A. baumannii AbΔ3-ARA-EcPore (efflux-deficient, hyperporinated); conditions: for MIC: AbΔ3-ARA-EcPore, at least three independent measurements
[13] = test system: P. aeruginosa PaΔ3-LAC-EcPore (efflux-deficient, hyperporinated); conditions: for MIC: PaΔ3-LAC-EcPore, at least three independent measurements
[14] = test system: B. thailandensis BtΔ2-RHA-BtPore (efflux-deficient, hyperporinated)
[15] = Pseudomonas aeruginosa, read-out: MIC
[16] = Acinetobacter baumannii, read-out: MIC
[17] = Burkholderia cepacia, read-out: MIC

Compound	MIC [1]	MIC [2]	MIC [3]	MIC [4]	MIC [5]	MIC [7]	MIC [1, 15]	MIC [2, 16]	MIC ([3]; Burkholderia thailandensis)	MIC [4, 16]	MIC [6, 16]	MIC [7, 15]	MIC [8, 17]	MIC [9, 15]	MIC [10, 17]	MIC ([11]; Burkholderia thailandensis)	MIC [12, 16]	MIC [13, 15]	MIC ([14]; Burkholderia thailandensis)	MIC ([5]; Burkholderia thailandensis)	other results
Tobramycin [Tobramycin + Mg^2+]	1 µg/mL	4 µg/mL	64 µg/mL	4 µg/mL	64 µg/mL	2 µg/mL															MIC [6]: 2 µg/mL; MIC [8]: 4 µg/mL; MIC [9]: 0.5 µg/mL; MIC [10]: 32 to 64 µg/mL; MIC [11]: 1 µg/mL; MIC [12]: 2 µg/mL; MIC [13]: 0.5 µg/mL; MIC [14]: 1 µg/mL
CN[C@H](CC(C)C)C(=O)N[C@H]1C(=O)N[C@@H](CC(N)=O)C(=O)N[C@H]2C(=O)N[C@H]3C(=O)N[C@H](C(=O)N[C@H](C(=O)O)c4cc(O)cc(O)c4-c4cc3ccc4O)[C@H](O)c3ccc(c(Cl)c3)Oc3cc2cc(c3O[C@@H]2O[C@H](CO)[C@@H](O)[C@H](O)[C@H]2O[C@H]2C[C@](C)(N)[C@H](O)[C@H](C)O2)Oc2ccc(cc2Cl)[C@H]1O [Vancomycin]					256 to 512 µg/mL		128 µg/mL (≈ 88.3 µM)	1020 µg/mL (≈ 707 µM)	> 1020 µg/mL	1020 µg/mL (≈ 707 µM)	128 µg/mL (≈ 88.3 µM)	1020 µg/mL (≈ 707 µM)	8 µg/mL (≈ 5.52 µM)	1020 µg/mL (≈ 707 µM)	> 1020 µg/mL	> 1020 µg/mL	128 µg/mL (≈ 88.3 µM)	64 µg/mL (≈ 44.2 µM)	4 to 8 µg/mL (≈ 2.76 to 5.52 µM)		
Cc1c(N)nc([C@H](CC(N)=O)NC[C@H](N)C(N)=O)nc1C(=O)N[C@H](C(=O)N[C@H](C)[C@@H](O)[C@H](C)C(=O)N[C@H](C(=O)NCCC1=N[C@@H](c2nc(C(=O)NCCCCN=C(N)N)cs2)CS1)[C@@H](C)O)[C@@H](O[C@@H]1O[C@@H](CO)[C@@H](O)[C@H](O)[C@@H]1O[C@H]1O[C@H](CO)[C@@H](O)[C@H](OC(N)=O)[C@@H]1O)c1cnc[nH]1 [Zeocin]	32 to 64 µg/mL	8 µg/mL (≈ 5.6 µM)	512 µg/mL (≈ 359 µM)	1 µg/mL (≈ 0.701 µM)	128 µg/mL (≈ 89.7 µM)	512 µg/mL (≈ 359 µM)															MIC [6]: 0.5 µg/mL (≈ 0.35 µM); MIC [8]: 128 µg/mL (≈ 89.7 µM); MIC [9]: 16 µg/mL (≈ 11.2 µM); MIC [10]: >1024 µg/mL; MIC [11]: 2 µg/mL (≈ 1.4 µM); Fold change of MIC by efflux inactivation plus hyperporination ([12]; AbΔ3-ARA-EcPore vs Ab-ARA): 64 fold; MIC [12]: 0.125 µg/mL (≈ 0.0876 µM); Fold change of MIC by efflux inactivation plus hyperporination ([13]; PaeΔ3-LAC-Pore vs parent): 256 fold; MIC [13]: 2 µg/mL (≈ 1.4 µM); Fold change of MIC by efflux inactivation plus hyperporination [14]: 4096 fold; MIC [14]: 0.12 µg/mL (≈ 0.0841 µM)
Oc1cc(Cl)ccc1Oc1ccc(Cl)cc1Cl [Triclosan]							1020 µg/mL (≈ 3540 µM)	0.125 µg/mL (≈ 0.432 µM)	120 µg/mL (≈ 414 µM)	0.002 µg/mL (≈ 0.00691 µM)	0.063 µg/mL (≈ 0.218 µM)	1020 µg/mL (≈ 3540 µM)	60 µg/mL (≈ 207 µM)	32 µg/mL (≈ 111 µM)	> 120 µg/mL	0.12 µg/mL (≈ 0.414 µM)	0.001 µg/mL (≈ 0.00345 µM)	8 µg/mL (≈ 27.6 µM)	0.06 µg/mL (≈ 0.207 µM)	30 µg/mL (≈ 104 µM)	
NCC[C@H](O)C(=O)N[C@@H]1C[C@H](N)[C@@H](O[C@H]2O[C@H](CN)[C@@H](O)[C@H](O)[C@H]2O)[C@H](O)[C@H]1O[C@H]1O[C@H](CO)[C@@H](O)[C@H](N)[C@H]1O [Amikacin]							2 µg/mL (≈ 3.42 µM)	8 µg/mL (≈ 13.7 µM)	256 µg/mL (≈ 437 µM)	4 µg/mL (≈ 6.83 µM)	4 µg/mL (≈ 6.83 µM)	2 µg/mL (≈ 3.42 µM)	8 µg/mL (≈ 13.7 µM)		128 µg/mL (≈ 219 µM)	4 µg/mL (≈ 6.83 µM)	4 µg/mL (≈ 6.83 µM)		2 µg/mL (≈ 3.42 µM)	256 µg/mL (≈ 437 µM)	
CO[C@@H]1[C@@H](OC(N)=O)[C@@H](O)[C@H](Oc2ccc3c(O)c(NC(=O)c4ccc(O)c(CC=C(C)C)c4)c(=O)oc3c2C)OC1(C)C [Novobiocin]						512 µg/mL (≈ 836 µM)	64 µg/mL (≈ 104 µM)	3.1 µg/mL (≈ 5.06 µM)	8 µg/mL (≈ 13.1 µM)	0.025 µg/mL (≈ 0.0408 µM)	1.56 µg/mL (≈ 2.55 µM)		0.125 µg/mL (≈ 0.204 µM)	32 µg/mL (≈ 52.2 µM)	8 µg/mL (≈ 13.1 µM)	0.25 µg/mL (≈ 0.408 µM)	0.025 µg/mL (≈ 0.0408 µM)	4 µg/mL (≈ 6.53 µM)	0.008 µg/mL (≈ 0.0131 µM)	4 µg/mL (≈ 6.53 µM)	Fold decrease of MIC (potentiation) by hyperporination [1]: 16-32 fold; Fold decrease of MIC (potentiation) by hyperporination [5]: 2 fold; Fold decrease of MIC (potentiation) by hyperporination [6]: 2 fold; Fold decrease of MIC (potentiation) by hyperporination [8]: 16-32 fold
CC[C@H](C)[C@H](N)C1=N[C@H](C(=O)N[C@@H](CC(C)C)C(=O)N[C@H](CCC(=O)O)C(=O)N[C@H](C(=O)N[C@H]2CCCCNC(=O)[C@H](CC(N)=O)NC(=O)[C@@H](CC(=O)O)NC(=O)[C@H](Cc3cnc[nH]3)NC(=O)[C@@H](Cc3ccccc3)NC(=O)[C@H]([C@@H](C)CC)NC(=O)[C@@H](CCCN)NC2=O)[C@@H](C)CC)CS1 [Bacitracin] ({Ileψ(thiazoline)Cys}-L[dE]IK[dOrn]I[dF]H[dD]N; lactam 4-C)							64 µg/mL (≈ 45 µM)	256 µg/mL (≈ 180 µM)	> 1020 µg/mL	512 µg/mL (≈ 360 µM)	32 µg/mL (≈ 22.5 µM)	> 1020 µg/mL	16 µg/mL (≈ 11.2 µM)	> 1020 µg/mL	> 1020 µg/mL	1020 µg/mL (≈ 720 µM)	64 µg/mL (≈ 45 µM)	64 µg/mL (≈ 45 µM)	8 µg/mL (≈ 5.62 µM)	1020 µg/mL (≈ 720 µM)	
C[C@@H](O)[C@H]1C(=O)N2C(C(=O)O)=C(S[C@@H]3CN[C@H](C(=O)N(C)C)C3)[C@H](C)[C@H]12 [Meropenem]							0.25 µg/mL (≈ 0.652 µM)	0.25 µg/mL (≈ 0.652 µM)	1 µg/mL (≈ 2.61 µM)	0.125 µg/mL (≈ 0.326 µM)	0.063 µg/mL (≈ 0.164 µM)	0.5 µg/mL (≈ 1.3 µM)	0.125 µg/mL (≈ 0.326 µM)	0.125 µg/mL (≈ 0.326 µM)	> 4 µg/mL	0.25 µg/mL (≈ 0.652 µM)	0.063 µg/mL (≈ 0.164 µM)	0.03 µg/mL (≈ 0.0782 µM)	0.03 µg/mL (≈ 0.0782 µM)	1 µg/mL (≈ 2.61 µM)	Fold decrease of MIC (potentiation) by hyperporination [1]: 2-4 fold; Fold decrease of MIC (potentiation) by hyperporination [6]: 2-4 fold; Fold decrease of MIC (potentiation) by hyperporination [8]: > 32 fold
Polymyxin B	1.5 µg/mL	0.25 µg/mL	>1024 µg/mL	0.125 µg/mL	>1024 µg/mL	1.5 µg/mL															MIC [6]: 0.25 µg/mL; MIC [8]: 512 µg/mL; MIC [9]: 1.5 µg/mL; MIC [10]: >1024 µg/mL; MIC [11]: >1024 µg/mL; MIC [12]: 0.125 µg/mL; MIC [13]: 1.5 µg/mL; MIC [14]: 128 µg/mL
